Experimental data reported in patent publication US4738970A, “Benzimidazolyl-thio-tetrahydroquinolines and anti-peptic ulcer compositions containing the same” (Otsuka Pharmaceutical Co., Ltd., priority 1984, dated 1988).

Key:
H^+ -K^+ -ATPase = biological target: T1, H^+ -K^+ -ATPase (Sus scrofa, UniProt P19156); test: Inhibitory Effect Test for the Activity of H^+ -K^+ -ATPase; type: biochemical; conditions: H+-K+-ATPase from the stomach of swine; preincubation pH 6.1, room temperature 30 min; reaction pH 7.4, 37° C. 30 min; read-out: IC50 (50% inhibition dosage)
T1 construct: which was prepared from the stomach of swine; from tissue; host or cells: stomach of swine
Procedure: H^+ -K^+ -ATPase (hydrogen-potassium-activated adenosine triphosphatase) (protein content: 10 mcg) which was prepared from the stomach of swine was added to PIPES-tris[buffer PIPES-tris(hydroxymethyl)-2-amino-1,3-propanediol buffer (pH=6.1) containing 2 mM of piperazine-N,N'-bis(2-ethanesulfonic acid)], then the resulting mixture was let allowed to stand at room temperature.
Each of the test compounds was dissolved in dimethylformamide, and the dimethylformamide solution was added to the above-mentioned H^+ -K^+ -ATPase buffer solution so as to adjust the final concentration of the test compound to 1.0%. Each of thus prepared mixture was reacted at room temperature for 30 minutes.
Next, the above-mentioned reaction mixture was divided into two portions, and to the one portion thereof was added 1 ml of 75 mM PIPES-tris buffer solution (pH=7.4) (containing 4 mM of MgCl2, 4 mM of Na2 ATP and 20 mM of KCl), on the other hand, to another portion of the reaction mixture was added 1 ml of 75 mM PIPES-tris buffer solution (pH=7.4) (containing 4 mM of MgCl2 and 4 mM of Na2 ATP), respectively. Each of these two series of sample solutions was separately reacted at 37° C. for 30 minutes. Then to each of these reaction mixtures was added 0.3 ml of 40% trichloroacetic acid to terminate the reaction, and was subjected to centrifugal separation at 3,000 rpm for 10 minutes to obtain the supernatent. Next, the inorganic phosphoric acid formed in the reaction mixture was determined by a method according to the article by C. H. Fiske and Y. Subbarow: J. Biol. Chem., Vol. 66, pages 375-400, (1925). The difference of the value obtained by substracting the quantity of inorganic phosphoric acid determined by using PIPES-tris buffer solution without containing 20 mM of KCl from the quantity of inorganic phosphoric acid determined by using PIPES-tris buffer solution containing 20 mM of KCl, was converted into as activity value of enzyme with respect to the unit protein and unit time.
Inhibitory rate (%) of each of the test compounds was obtained from the activity value of the enzyme at the respective dosages in the test groups and those of obtained from the control group, then IC50 (50% inhibition dosage of each of the test compounds) was calculated from the inhibitory rate (%).

[1] = tested on: secretion of hydrochloric acid in the stomach; test: Inhibitory Effect Test for the Secretion of Hydrochloric Acid in the Stomach; type: in vivo, Wistar strain male rats; conditions: Rattus norvegicus; Wistar male rats, pylorus ligated, histamine dihydrochloride 1 mg/kg/hour stimulated; injected into the duodenum; probit analysis; read-out: ED50 (inhibition of the secretion of hydrochloric acid)
Procedure: Wistar strain male rats were used as test animals. The test animals were abstained from food for 24 hours, then the pyloric sphincter of the test animal was ligated under anesthetized condition with urethane (1.5 g/kg), and a perfusion cannula for the stomach was inserted into the stomach.
The stomach was perfused with physiological saline through a peroral catheter, and the quantity of gastric juice secreted was measured by determining the pH and by titrating the total acidity of the perfusate.
The secretion of gastric juice was accelerated by injecting histamine dihydrochloride as the secretion stimulant in the rate of 1 mg/kg/hour continuously through the femoral vein, then the effect of each of the compounds was tested. Each of the test compounds was dissolved in dimethylformamide, and the predetermined dosage (maximum: 30 mg/kg) of each of the test compounds was administered by injecting the test compound solution into the duodenum.
Inhibition rate (%) of the secretion of hydrochloric acid was calculated by taking the value of the hydrochloric acid secreted before the administration of each of the test compounds as the reference. ED50 value of each of the test compounds was calculated from the inhibitory rate (%) of each of the test compounds and treated mathematically by probit (probability unit) analysis.

T1 sequence (P19156 2-1034 limits assumed): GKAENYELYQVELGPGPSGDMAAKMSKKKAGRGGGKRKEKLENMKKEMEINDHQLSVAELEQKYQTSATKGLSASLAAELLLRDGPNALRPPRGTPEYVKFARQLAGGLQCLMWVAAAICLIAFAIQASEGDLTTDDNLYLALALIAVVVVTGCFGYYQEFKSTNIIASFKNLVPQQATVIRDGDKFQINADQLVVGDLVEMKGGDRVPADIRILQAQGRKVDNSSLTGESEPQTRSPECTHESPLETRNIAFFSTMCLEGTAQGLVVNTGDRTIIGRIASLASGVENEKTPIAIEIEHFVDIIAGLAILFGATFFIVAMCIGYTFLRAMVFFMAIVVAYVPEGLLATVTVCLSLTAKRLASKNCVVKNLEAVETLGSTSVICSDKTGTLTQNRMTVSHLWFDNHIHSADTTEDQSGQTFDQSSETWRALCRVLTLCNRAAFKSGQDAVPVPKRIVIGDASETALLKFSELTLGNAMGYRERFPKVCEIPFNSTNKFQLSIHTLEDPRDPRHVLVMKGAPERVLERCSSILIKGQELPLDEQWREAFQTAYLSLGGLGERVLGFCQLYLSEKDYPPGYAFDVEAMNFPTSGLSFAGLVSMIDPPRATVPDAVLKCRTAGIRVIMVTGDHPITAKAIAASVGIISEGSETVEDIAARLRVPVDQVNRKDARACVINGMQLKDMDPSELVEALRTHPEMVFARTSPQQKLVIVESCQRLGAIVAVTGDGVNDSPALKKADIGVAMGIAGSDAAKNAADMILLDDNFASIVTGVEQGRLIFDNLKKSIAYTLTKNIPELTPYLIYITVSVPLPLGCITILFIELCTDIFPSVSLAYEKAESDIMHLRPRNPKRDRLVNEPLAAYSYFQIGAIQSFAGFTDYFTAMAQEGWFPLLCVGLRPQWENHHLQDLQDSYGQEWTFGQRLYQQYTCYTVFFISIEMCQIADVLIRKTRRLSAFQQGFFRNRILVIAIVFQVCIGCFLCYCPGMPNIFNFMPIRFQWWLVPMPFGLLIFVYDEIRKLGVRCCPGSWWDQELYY
T1 sequence (P18434 whole entry partner): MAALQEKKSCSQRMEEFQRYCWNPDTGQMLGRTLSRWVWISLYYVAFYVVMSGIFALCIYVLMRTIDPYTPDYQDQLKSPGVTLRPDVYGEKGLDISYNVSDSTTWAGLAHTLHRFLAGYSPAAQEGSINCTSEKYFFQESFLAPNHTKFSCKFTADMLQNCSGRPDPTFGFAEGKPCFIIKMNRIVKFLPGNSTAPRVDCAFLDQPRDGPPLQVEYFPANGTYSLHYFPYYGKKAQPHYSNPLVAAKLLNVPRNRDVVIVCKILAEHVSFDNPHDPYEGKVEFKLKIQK

[O-][S+](c1nc2ccccc2[nH]1)C1CCCc2cccnc21 (centres unmarked) [Test compound 12, 8-(2-Benzimidazolyl)sulfinyl-5,6,7,8-tetrahydroquinoline]
IC50 (H^+ -K^+ -ATPase): 1200 nM | ED50 [1]: 8.5 mg/kg

Cc1ccc2nc([S+]([O-])C3CCCc4cccnc43)[nH]c2c1 (centres unmarked) [Test compound 17, 8-(5-Methyl-2-benzimidazolyl)sulfinyl-5,6,7,8-tetrahydroquinoline]
IC50 (H^+ -K^+ -ATPase): 1900 nM | ED50 [1]: 17.2 mg/kg

[O-][S+](c1nc2ccc(Cl)cc2[nH]1)C1CCCc2cccnc21 (centres unmarked) [Test compound 20, 8-(5-Chloro-2-benzimidazolyl)sulfinyl-5,6,7,8-tetrahydroquinoline]
IC50 (H^+ -K^+ -ATPase): 1000 nM | ED50 [1]: 4.4 mg/kg

COc1ccc2nc([S+]([O-])C3CCCc4cc(C)cnc43)[nH]c2c1 (centres unmarked) [Test compound 26, 3-Methyl-8-(5-methoxy-2-benzimidazolyl)-sulfinyl-5,6,7,8-tetrahydroquinoline]
IC50 (H^+ -K^+ -ATPase): 3700 nM | ED50 [1]: 15.7 mg/kg

[O-][S+](c1nc2ccc(F)cc2[nH]1)C1CCCc2cccnc21 (centres unmarked) [Test compound 32, 8-(5-Fluoro-2-benzimidazolyl)sulfinyl-5,6,7,8-tetrahydroquinoline]
IC50 (H^+ -K^+ -ATPase): 1700 nM | ED50 [1]: 5.2 mg/kg

Cc1cnc2c(c1)CCCC2[S+]([O-])c1nc2ccc(F)cc2[nH]1 (centres unmarked) [Test compound 40, 3-Methyl-8-(5-fluoro-2-benzimidazolyl)-sulfinyl-5,6,7,8-tetrahydroquinoline]
IC50 (H^+ -K^+ -ATPase): 1900 nM

COc1c(C)cnc2c1CCCC2[S+]([O-])c1nc2cc(Cl)c(Cl)cc2[nH]1 (centres unmarked) [Test compound 41, 3-Methyl-4-methoxy-8-(5,6-dichloro-2-benzimidazolyl)sulfinyl-5,6,7,8-tetrahydroquinoline]
IC50 (H^+ -K^+ -ATPase): 99 nM

CCOc1cc2[nH]c([S+]([O-])C3CCCc4c3ncc(C)c4OC)nc2cc1F (centres unmarked) [Test compound 42, 3-Methyl-4-methoxy-8-(5-ethoxy-6-fluoro-2-benzimidazolyl)sulfinyl-5,6,7,8-tetrahydroquinoline]
IC50 (H^+ -K^+ -ATPase): 240 nM

COc1c(C)cnc2c1CCCC2[S+]([O-])c1nc2cc(F)c(F)cc2[nH]1 (centres unmarked) [Test compound 43, 3-Methyl-4-methoxy-8-(5,6-difluoro-2-benzimidazolyl)sulfinyl-5,6,7,8-tetrahydroquinoline]
IC50 (H^+ -K^+ -ATPase): 280 nM

COc1c(C)cnc(C[S+]([O-])c2nc3nc(Br)ccc3[nH]2)c1C (centres unmarked) [Test compound 45, 5-Bromo-2-[(3,5-dimethyl-4-methoxy-2-pyridyl)methylsulfinyl]imidazo[4,5-b]pyridine]
IC50 (H^+ -K^+ -ATPase): 2340 nM

COc1c(C)cnc(C[S+]([O-])c2nc3cnccc3[nH]2)c1C (centres unmarked) [Test compound 46, 2-[(3,5-Dimethyl-4-methoxy-2-pyridyl)-methylsulfinyl]imidazo[4,5-c]pyridine]
IC50 (H^+ -K^+ -ATPase): 29200 nM

c1ccc(CSc2nc3ncccc3[nH]2)nc1 [Test compound 47, 2-(2-Pyridylmethylthio)imidazo[4,5-b]pyridine, reference compound]
IC50 (H^+ -K^+ -ATPase): > 100000 nM

COc1cc2nc([S+]([O-])C3CCCc4c3ncc(C)c4OC)[nH]c2cc1F (centres unmarked) [Test compound 48, 3-Methyl-4-methoxy-8-(5-fluoro-6-methoxy-2-benzimidazolyl)sulfinyl-5,6,7,8-tetrahydroquinoline]
IC50 (H^+ -K^+ -ATPase): 310 nM

COc1ccc2nc([S+]([O-])C3CCCc4c3ncc(C)c4OC)[nH]c2c1 (centres unmarked) [Test compound 49, 3-Methyl-4-methoxy-8-(5-methoxy-2-benzimidazolyl)sulfinyl-5,6,7,8-tetrahydroquinoline]
IC50 (H^+ -K^+ -ATPase): 280 nM

COc1c(C)cnc2c1CCCC2[S+]([O-])c1nc2ccc(Cl)cc2[nH]1 (centres unmarked) [Test compound 50, 3-Methyl-4-methoxy-8-(5-chloro-2-benzimidazolyl)sulfinyl-5,6,7,8-tetrahydroquinoline]
IC50 (H^+ -K^+ -ATPase): 180 nM

COc1ccnc2c1CCCC2[S+]([O-])c1nc2ccc(F)cc2[nH]1 (centres unmarked) [Test compound 51, 4-Methoxy-8-(5-fluoro-2-benzimidazolyl)-sulfinyl-5,6,7,8-tetrahydroquinoline]
IC50 (H^+ -K^+ -ATPase): 99 nM

Cc1cnc2c(c1)CCCC2[S+]([O-])c1nc2cc(Cl)c(Cl)cc2[nH]1 (centres unmarked) [Test compound 52, 3-Methyl-8-(5,6-dichloro-2-benzimidazolyl)-sulfinyl-5,6,7,8-tetrahydroquinoline]
IC50 (H^+ -K^+ -ATPase): 230 nM

Cc1cnc2c(c1)CCCC2[S+]([O-])c1nc2cc(C)c(C)cc2[nH]1 (centres unmarked) [Test compound 53, 3-Methyl-8-(5,6-dimethyl-2-benzimidazolyl)-sulfinyl-5,6,7,8-tetrahydroquinoline]
IC50 (H^+ -K^+ -ATPase): 580 nM
